In US20050170019A1, “Methods, compositions and devices for inducing stasis in cells” (Fred Hutchinson Cancer Research Center, priority 2003, published 2005):
Where two headings read alike, the source gives them in different places.

Columns and labels:
[1] = test system: C. elegans embryos; test: Viability of nematodes in carbon monoxide based atmospheres; type: in vivo; conditions: for viability (survival) to adulthood: 0.25 kPa O2/CO
Description: To achieve specific atmospheric conditions the following apparatus was used: a glass syringe barrel having a tip with a locking device such as a LUER-LOK with the large opening of the barrel sealed with a custom-machined steel and rubber fitting to make an airtight seal was locked to via locking device to the inlet port of an environmental chamber having an inlet and an outlet port each fitted with a locking devices such as a LUER-LOK fitting. A defined gas was humidified and provided to the environmental chamber by first venting the gas from a compressed tank (Byrne Specialty Gas, Seattle, Wash.) through a gas washing bottle (500 ml Kimex) filled with double distilled water. The gas washing bottle was connected to the environmental chamber past a gas-flow meter. A gas flow meter was used to provide a regulated 70 cc/min flow through the environmental chamber throughout the 24 hr incubation.
(§1) To test whether induced, reversible stasis could be achieved in C. elegans nematodes, 2-cell C. elegans embryos, L3 larvae or adult nematodes were collected and exposed to either an environment of effectively 100% CO, an environment of 100% N2, an environment comprising 500 ppm oxygen balanced with carbon monoxide, or to environments comprising 100, 500 or 1000 ppm oxygen balanced with nitrogen at room temperature. Nematodes were visualized using differential interference contrast microscopy (also known as Nomarski optics). Images were collected and analyzed using NIH image and Adobe Photoshop 5.5. Embryos are approximately 50 μm in length.
Environmental chambers and apparatuses. Oxygen deprivation experiments were carried out using a custom atmospheric chamber designed by W. Van Voorhies (Van Voorhies et al., 2000). The chamber is a 30 mL glass syringe (Fisher #14-825-10B) fitted with a custom steel stopper that is lined with two viton o-rings to ensure a tight seal. The stopper is bored through and has a steel lure lock on the exterior face so that a hose carrying compressed gas can be attached. A defined gas mixture is delivered to the chamber at a constant pressure and flow rate from compressed tanks by passing first through a rotometer (Aalborg, flow-tube number 032-41ST) or mass flow controller (Sierra Instruments #810) to monitor flow rate and then through a 500 ml gas washing bottle (Fisher #K28220-5001) containing 250 ml water to hydrate the gas. ¼” OD nylon (Cole-Parmer #P-06489-06) or FEP (Cole-Parmer #A-06450-05) tubing was used and connections between tubing and the regulators and between the tubing and the rotometers were made with brass John-Guest-type fittings (Byrne Gas). All other connections were made with either microflow quick-connect fittings (Cole-Parmer #A-06363-57, #A-06363-52) or standard lure fittings (Cole-Parmer #A-06359-37, #A-06359-17).
Viability of nematodes in hypoxia. […] Log-phase, adult C. elegans were picked into a drop of sterile water containing 100 μg/ml ampicillin, 15 μg/ml tetracycline and 200 μg/ml streptomycin on a glass plate. Adults were chopped with a razor blade and 2-cell embryos were picked using a mouth pipet. 30-60 2-cell embryos were transferred to a small glass boat (custom made to fit atmospheric chambers, Avalon Glass Works, Seattle Wash.) filled with 3 ml of 1% agarose in M9. Boats were then placed into a humid chamber for 2 hours to allow the embryos to age and then placed into the environmental chamber. The environmental chambers were continuously perfused at room temperature with either pure N2 (grade 4.5), 100 ppm O2/N2, 500 ppm O2/N2, 1000 ppm O2/N2, or 5000 ppm O2/N2 at 70 cc/min for 24 hrs. Following exposure, agarose chunks containing the embryos were cut out of the boat and placed with embryos facing up onto a medium-sized NGM plate seeded with E. coli (OP50). Embryos were scored for hatching 24 hours after exposure and hatched L1's were transferred to the surface of the NGM plate and followed to adulthood. Animals that could not be accounted for were dropped from the total. […]

[2] = test system: C. elegans embryos; test: Cell biological analysis: arrest of embryogenesis (suspended animation) in carbon monoxide-based atmospheres; type: in vivo
Description: as §1
Cell biological analysis. To determine the extent of developmental progression in nitrogen-based atmospheres (Table 2), 2-cell embryos were exposed to various degrees of hypoxia as described above and were either immediately photographed, or photographed following a 12 hr recovery period in a humid chamber. To determine whether embryos arrested in carbon monoxide-based atmospheres, 2-cell embryos were aged in room air for two hours and were either photographed immediately or put into 100% carbon monoxide or 0.05 kPa O2/CO for 24 hours and photographed immediately following the exposure. In all cases, DIC microscopy was done by placing embryos under a cover slip on a thin 1% agarose pad and viewing on a Zeiss axioscope. Photographs were taken using RS Image and Adobe Photoshop software.

[3] = test system: human keratinocytes; test: Preservation of human skin in carbon monoxide: keratinocyte growth and colony formation; type: cell-based
Description: Three human foreskins were obtained for this purpose. The foreskin tissue was preserved in keratinocyte growth medium (KGM) containing insulin, EGF (0.1 ng/ml), hydrocortisone ([…]) and bovine pituitary extract (approx. 50 micrograms/ml of protein). Foreskins were rinsed in PBS, and excess fatty tissue was removed. Each foreskin sample was divided into 2 equal pieces. Each piece was placed into a separate container containing a solution of PBS with 24 mg/ml of Dispase II (from Bacillus Polymyxa EC 3.4.24.4:Roche Diagnostics Corp., Indianapolis, Ind.). One container (containing a foreskin piece in PBS with Dispase II) was kept in a humid chamber in a fume hood. The other container (with the other half of the foreskin in PBS with Dispase II) was placed in the same fume hood in an environmental chamber perfused with humidified 100% CO. Both samples were maintained at room temperature for 24 hrs. Methods used to establish defined atmospheric conditions were identical to those used in Example 1.
Following the 24 hr exposure to normoxia or 100% CO, keratinocytes were isolated from the foreskins according to the method described by Boyce et al. (1983; 1985; each of which is incorporated herein by reference in its entirety). Briefly, the epidermis from each foreskin sample was removed to a fresh dish containing PBS. The epidermis was minced and homogenized prior to incubation in 3 ml of 0.05% Trypsin, 1 mM EDTA for 5 minutes, at room temperature, to separate basal cells from the epidermis. After incubation, 6 ml of 400 μg/ml (micrograms per ml) Soybean Trypsin Inhibitor, 1 mg/ml BSA was added and the samples were centrifuged at 900 RPM. The supernatant from each sample was discarded and the sample pellets were resuspended in 10 ml of KGM. Each sample was split into two 10 cm plates each of which contained 5 ml KGM and 100 μl of HEPES pH 7.3 (N-2-hydroxyethylpiperazine-N′-2-ethane sulfonic acid). The plates were incubated in a 37° C. incubator perfused with 95% room air, 5% carbon dioxide for five days.
Cells were inspected visually using an inverted phase contrast microscope. […] Quantitation of the number of viable keratinocytes as judged by colony formation was quantified for two of the three foreskins.

[4] = test system: humans; conditions: cited from earlier work

Question: With `[C-]#[O+]` [carbon monoxide] as the molecule, how does the “viability (survival) to adulthood” value ([1]; N2 (wild-type) embryos, 24 hrs) read?
Answer: 78.7%

Question: And the “viability (survival) to adulthood” value ([1]; N2 (wild-type) embryos, 24 hrs, listed as CO)?
Answer: 78.7% ± 21.9

Question: And the viability to adulthood ([1]; embryos, 0.05 kPa O2 balanced with carbon monoxide, 24 hours)?
Answer: 96.2%

Question: What about the survival to adulthood ([1]; embryos, 101 kPa CO (100% CO), 24 hrs) of the same molecule?
Answer: 81.5%

Question: What about the “viability (survival) to adulthood” value ([1]; hif-1(ia04) embryos, 24 hrs) of the same molecule?
Answer: 84.0%

Question: And the “viability (survival) to adulthood” value ([1]; hif-1(ia04) embryos, 24 hrs, listed as CO)?
Answer: 83.9% ± 13.8

Question: And the lethality ([1]; nematodes, 100% carbon monoxide, room temperature, 24 hr)?
Answer: not lethal

Question: And the “suspended animation and survival” value ([1]; nematodes, 500 ppm oxygen balanced with carbon monoxide)?
Answer: entered into suspended animation and survived

Question: And the “protection against hypoxia (FIG. 3)” value ([1]; wild-type embryos, 24 hours, 0.05 kPa O2/CO versus 0.05 kPa O2/N2)?
Answer: protects against hypoxia

Question: What about the embryogenesis during exposure ([2]; embryos, 0.05 kPa O2 balanced with carbon monoxide) of the same molecule?
Answer: arrested embryogenesis

Question: And the “progression through embryogenesis during exposure” value ([2]; embryos, 101 kPa CO)?
Answer: did not progress through embryogenesis

Question: What about the “induction of suspended animation” value ([2]; nematodes, 100% carbon monoxide) of the same molecule?
Answer: induced reversible suspended animation

Question: What about the suspended animation ([2]; wild-type and hif-1(ia04) embryos, 0.25 kPa O2 balanced with carbon monoxide) of the same molecule?
Answer: entered into suspended animation

Question: And the Total colonies ([3]; Foreskin 1, 100% CO 24 hrs)?
Answer: 542 colonies (many of which were very

Question: And the Total colonies ([3]; Foreskin 2, 100% CO 24 hrs)?
Answer: 780 colonies (many of which were very

Question: And the “survival of human keratinocytes (FIG. 1)” value ([3]; exposure to 100% CO)?
Answer: survive

Question: What about the “survival of skin cells in CO relative to room air” value ([3]; human skin, 100% CO, after 24 hrs) of the same molecule?
Answer: 100 fold

Question: What about the “growth of keratinocyte populations (visual inspection)” value ([3]; three foreskins, 24 hr 100% CO at room temperature, then five days culture) of the same molecule?
Answer: significant growth

Question: What about the symptoms ([4]; 50 parts per million (ppm)) of the same molecule?
Answer: no symptoms

Question: And the symptoms ([4]; 200 ppm, within two-three hours)?
Answer: slight headache

Question: And the symptoms ([4]; 400 ppm, within one to two hours)?
Answer: frontal headache

Question: And the symptoms ([4]; 800 ppm)?
Answer: dizziness, nausea, and/or convulsions within 45 minutes, and render the subject insensible within two hours

Question: What about the lethality ([4]; around 1000 ppm, exposure for more than around 1-2 minutes, an organism) of the same molecule?
Answer: can expire
